Assay results published in PMC11181081 (Proceedings of the National Academy of Sciences of the …, 2024).

How the values were obtained:
[1] = test system: ER-regulated genes PGR, GREB1, TFF1/pS2; assay: qPCR of ER target genes in MCF-7 cells; format: cell-based; conditions: MCF-7 in normal FBS-containing media, ~1 pM E2
[2] = test system: primary female mouse myotubes; assay: Primary myotube size by high-content imaging; format: cell-based; conditions: 50 pM, 5 d
Greb1 expression = assay: Greb1 qPCR in primary myotubes; format: cell-based, mouse; conditions: steroid-free conditions, 24 h
MCF-7 WT cells = assay: Cell proliferation assay, MCF-7 WT; conditions: MCF-7 with ER-WT, charcoal-stripped FBS, 5 d

Compound: C[C@]12CC[C@@H]3c4ccc(O)cc4CC[C@H]3[C@@H]1CC[C@@H]2O [Compound E2, 17β-estradiol]
- Gene expression profile in full media (in words) [1]: less induction of gene expression
- Myotube diameter / tube area (in words) [2]: maintained primary myotube diameter
- Greb1 expression dose response (in words) (Greb1 expression): biphasic with an inflection point below the ligand Kd
- Effect on proliferation (activity profile, in words) (MCF-7 WT cells): induced cell growth at doses 2 logs below the Kd
